Assay [1] concerns JAK1-dependent STAT6 phosphorylation downstream of IL-13 stimulation, BEAS-2B cells. In words: JAK1 pathway assay in cell lines: P-STAT6 in BEAS-2B cells + IL13. Particulars: BEAS-2B human bronchial epithelial cells, 1 hr compound preincubation, read-out: P-STAT6 BEAS2B + IL13 IC50. It counts as cell-based. As for the experimental part:
JAK1 Pathway Assay in Cell Lines was Carried Out as Follows:
Inhibitor potency (EC50) was determined in cell-based assays designed to measure JAK1 dependent STAT phosphorylation. As noted above, inhibition of IL-4, IL-13, and IL-9 signaling by blocking the Jak/Stat signaling pathway can alleviate asthmatic symptoms in pre-clinical lung inflammation models (Mathew et al., 2001, J Exp Med 193(9): 1087-1096; Kudlacz et. al., 2008, Eur J. Pharmacol 582(1-3): 154-161).
In one assay approach, TF-1 human erythroleukemia cells obtained from the American Type Culture Collection (ATCC; Manassas, Va.) were used to measure JAK1-dependent STAT6 phosphorylation downstream of IL-13 stimulation. Prior to use in the assays, TF-1 cells were starved of GM-CSF overnight in OptiMEM medium (Life Technologies, Grand Island, N.Y.) supplemented with 0.5% charcoal/dextran stripped fetal bovine serum (FBS), 0.1 mM non-essential amino acids (NEAA), and 1 mM sodium pyruvate. The assays were run in 384-well plates in serum-free OptiMEM medium using 300,000 cells per well. In a second assay approach, BEAS-2B human bronchial epithelial cells obtained from ATCC were plated at 100,000 cells per well of a 96-well plate one day prior to the experiment. The BEAS-2B assay was run in complete growth medium (bronchial epithelial basal medium plus bulletkit; Lonza; Basel, Switzerland).
Test compounds were serially diluted 1:2 in DMSO and then diluted 1:50 in medium just before use. Diluted compounds were added to the cells, for a final DMSO concentration of 0.2%, and incubated for 30 m (for the TF-1 assay) or 1 hr (for the BEAS-2B assay) at 37° C. Then, cells were stimulated with human recombinant cytokine at their respective EC90 concentrations, as previously determined for each individual lot. Cells were stimulated with […] (R&D Systems, Minneapolis, Minn.) for 15 m/at 37° C. The TF-1 cell reactions were stopped by the direct addition of 10× lysis buffer (Cell Signaling Technologies, Danvers, Mass.), whereas the BEAS-2B cell incubations were halted by the removal of medium and addition of 1× lysis buffer. The resultant samples were frozen in the plates at −80° C. Compound mediated inhibition of STAT6 phosphorylation was measured in the cell lysates using MesoScale Discovery (MSD) technology (Gaithersburg, Md.). EC50 values were determined as the concentration of compound required for 50% inhibition of STAT phosphorylation relative to that measured for the DMSO control.

Assay [2] addresses isolated recombinant JAK2 kinase domain (Homo sapiens, UniProt O60674). As to the kind of experiment: JAK enzyme assay (Caliper LabChip), JAK2 kinase domain. Particulars: ATP 25 μM, 0.2 nM JAK2, Morrison tight binding model.
The target of assay [3] is isolated recombinant JAK1 kinase domain (Homo sapiens, UniProt P23458). As to the kind of experiment: JAK enzyme assay (Caliper LabChip), JAK1 kinase domain. Conditions: ATP 25 μM; 1.5 nM JAK1; Morrison tight binding model. Type of assay: biochemical.
isolated recombinant JAK1 kinase domain, sequence (P23458 875-1153 limits assumed): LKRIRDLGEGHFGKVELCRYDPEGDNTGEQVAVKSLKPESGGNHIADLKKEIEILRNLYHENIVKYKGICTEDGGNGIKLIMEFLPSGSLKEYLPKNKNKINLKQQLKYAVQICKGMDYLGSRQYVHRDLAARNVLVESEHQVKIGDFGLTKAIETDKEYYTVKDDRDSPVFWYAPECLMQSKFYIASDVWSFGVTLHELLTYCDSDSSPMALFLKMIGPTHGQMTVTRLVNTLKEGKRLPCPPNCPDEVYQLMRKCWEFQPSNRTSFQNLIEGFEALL

Where two headings read alike, the source gives them in different places.

IC50 and Ki data for 16 molecules are collected here from patent US20220024945A1, “THERAPEUTIC COMPOUNDS AND COMPOSITIONS, AND METHODS OF USE THEREOF” (Genentech, Inc., priority 2017, published 2022).

By IC50 is commonly meant the midpoint of a concentration-inhibition curve. By Ki is commonly meant the dissociation constant of the complex between target and ligand, obtained from inhibition or displacement.

isolated recombinant JAK2 kinase domain, sequence (O60674 849-1124 limits assumed): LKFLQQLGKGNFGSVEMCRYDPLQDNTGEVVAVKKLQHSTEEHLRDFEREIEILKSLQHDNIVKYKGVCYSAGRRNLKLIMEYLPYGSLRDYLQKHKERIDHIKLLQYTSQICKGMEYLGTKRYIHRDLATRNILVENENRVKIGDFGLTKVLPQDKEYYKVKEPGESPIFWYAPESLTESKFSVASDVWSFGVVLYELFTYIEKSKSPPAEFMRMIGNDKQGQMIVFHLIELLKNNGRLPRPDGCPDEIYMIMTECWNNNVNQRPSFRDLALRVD

`CC(C)Sc1ccc(OC(F)F)c(-c2nn(Cc3cn(C4CCN([C@@H]5CCOC5)CC4)nn3)cc2NC(=O)c2cnn3cccnc23)c1` (stereo in doubt) [Example 12, N-[3-[2-(difluoromethoxy)-5-isopropylsulfanyl-phenyl]-1-[[1-[1-[rac-(3R)-tetrahydrofuran-3-yl]-4-piperidyl]triazol-4-yl]methyl]pyrazol-4-yl]pyrazolo[1,5-a]pyrimidine-3-carboxamide; formic acid]: the IC50 in assay [1] (Homo sapiens, BEAS-2B, 1 h) worked out at 22 nM. Moreover, the Ki worked out at 0.46 nM in assay [2] and 0.64 nM in assay [3].

For `COC(=O)N1CCN(CC2CCN(C(=O)Cn3cc(NC(=O)c4cnn5cccnc45)c(-c4cc(SC(CF)CF)ccc4OC(F)F)n3)CC2)CC1` [Example 18], the IC50 in assay [1] (Homo sapiens, BEAS-2B, 1 h) worked out at 33 nM. Moreover, the Ki in assay [2] stood at 1.3 nM; in assay [3], 0.4 nM.

Turning to `O=C(Nc1cn(CC(=O)N2CCC(N3CCOCC3)CC2)nc1-c1cc(SC(F)F)ccc1OC(F)F)c1cnn2cccnc12` [Example 42, N-[3-[2-(difluoromethoxy)-5-(difluoromethylsulfanyl)phenyl]-1-[2-(4-morpholino-1-piperidyl)-2-oxo-ethyl]pyrazol-4-yl]pyrazolo[1,5-a]pyrimidine-3-carboxamide], in assay [1] (Homo sapiens, BEAS-2B, 1 h), the IC50 was determined as 23 nM. The Ki was 0.72 nM in assay [2] and 0.34 nM in assay [3].

Regarding `O=C(Nc1cn(Cc2cn(C3CCN(C4COC4)CC3)nn2)nc1-c1cc(SC2COC2)ccc1OC(F)F)c1cnn2cccnc12` [Example 17, N-[3-[2-(difluoromethoxy)-5-(oxetan-3-ylsulfanyl)phenyl]-1-[[1-[1-(oxetan-3-yl)-4-piperidyl]triazol-4-yl]methyl]pyrazol-4-yl]pyrazolo[1,5-a]pyrimidine-3-carboxamide], the IC50 in assay [1] (Homo sapiens, BEAS-2B, 1 h) came to 130 nM. In addition, the results for the inhibitory constant (Ki) in assay [2] and in assay [3] were 0.57 nM and 0.81 nM, respectively.

For the molecule `O=C(Nc1cn(CC(=O)N2CC=CCC2)nc1-c1cc(SC2COC2)ccc1OC(F)F)c1cnn2cccnc12` [Example 25, N-[3-[2-(difluoromethoxy)-5-(oxetan-3-ylsulfanyl)phenyl]-1-[2-(3,6-dihydro-2H-pyridin-1-yl)-2-oxo-ethyl]pyrazol-4-yl]pyrazolo[1,5-a]pyrimidine-3-carboxamide], in assay [1] (Homo sapiens, BEAS-2B, 1 h), the IC50 came to 14 nM. Moreover, the Ki in assay [2] came to 0.59 nM; in assay [3], 0.28 nM.

As to `CN1CCCC(Sc2ccc(OC(F)F)c(-c3n[nH]cc3NC(=O)c3cnn4cccnc34)c2)C1` (single isomer, unassigned) [Example 38, N-[3-[2-(difluoromethoxy)-5-[(1-methyl-3-piperidyl)sulfanyl]phenyl]-1H-pyrazol-4-yl]pyrazolo[1,5-a]pyrimidine-3-carboxamide], in assay [1] (Homo sapiens, BEAS-2B, 1 h), the IC50 was 56 nM. In addition, the Ki in assay [2] was 1.38 nM; in assay [3], 2.93 nM.

Take `CSc1ccc(OC(F)F)c(-c2nn(CC(=O)N(C)C)cc2NC(=O)c2cnn3cccnc23)c1` [Example 44]: in assay [1] (Homo sapiens, BEAS-2B, 1 h), the IC50 was 10 nM. Further, the Ki in assay [2] was 0.24 nM; in assay [3], 0.17 nM.

For the molecule `CN(C)C(=O)Cn1cc(NC(=O)c2cnn3cccnc23)c(-c2cc(S(C)(=O)=O)ccc2OC(F)F)n1` [Example 49, N-(3-(2-(difluoromethoxy)-5-(methylsulfonyl)phenyl)-1-(2-(dimethylamino)-2-oxoethyl)-1H-pyrazol-4-yl)pyrazolo[1,5-a]pyrimidine-3-carboxamide], the IC50 in assay [1] (Homo sapiens, BEAS-2B, 1 h) was determined as 214 nM. The Ki in assay [2] came to 0.79 nM; in assay [3], 0.45 nM.

For `O=C(Nc1cn(Cc2cn(C3CCN([C@H]4CCOC4)CC3)nn2)nc1-c1cc(SC2CC2)ccc1OC(F)F)c1cnn2cccnc12` (stereo in doubt) [Example 13, N-[3-[5-cyclopropylsulfanyl-2-(difluoromethoxy)phenyl]-1-[[1-[1-[rac-(3S)-tetrahydrofuran-3-yl]-4-piperidyl]triazol-4-yl]methyl]pyrazol-4-yl]pyrazolo[1,5-a]pyrimidine-3-carboxamide], in assay [1] (Homo sapiens, BEAS-2B, 1 h), the IC50 came to 17 nM. Also, the Ki in assay [2] worked out at 0.36 nM; in assay [3], 0.56 nM.

With `CN(C)C(=O)Cn1cc(NC(=O)c2cnn3cccnc23)c(-c2cc(SC(F)F)ccc2OC(F)F)n1` [Example 33, N-[3-[2-(difluoromethoxy)-5-(difluoromethylsulfanyl)phenyl]-1-[2-(dimethylamino)-2-oxo-ethyl]pyrazol-4-yl]pyrazolo[1,5-a]pyrimidine-3-carboxamide], in assay [1] (Homo sapiens, BEAS-2B, 1 h), the IC50 was 10 nM. Further, the Ki in assay [2] was determined as 0.52 nM; in assay [3] it was 0.21 nM.

Turning to `O=C(Nc1cn(C2CN(C3CC(O)C3)C2)nc1-c1cc(SC2COC2)ccc1OC(F)F)c1cnn2cccnc12` (single isomer, unassigned) [Example 40, N-[3-[2-(difluoromethoxy)-5-(oxetan-3-ylsulfanyl)phenyl]-1-[1-(3-hydroxycyclobutyl)azetidin-3-yl]pyrazol-4-yl]pyrazolo[1,5-a]pyrimidine-3-carboxamide], the IC50 in assay [1] is 45 nM. Further, the Ki in assay [2] came to 1.02 nM; in assay [3] it was 1.18 nM.

As for `CC(=O)N1CCC(Sc2ccc(OC(F)F)c(-c3n[nH]cc3NC(=O)c3cnn4cccnc34)c2)CC1` [Example 34, N-[3-[5-[(1-acetyl-4-piperidyl)sulfanyl]-2-(difluoromethoxy)phenyl]-1H-pyrazol-4-yl]pyrazolo[1,5-a]pyrimidine-3-carboxamide], the IC50 in assay [1] (Homo sapiens, BEAS-2B, 1 h) was determined as 251 nM. For the same molecule, the Ki amounted to 0.39 nM in assay [2] and 1.02 nM in assay [3].

On to `O=C(Nc1cn(CC(=O)N2CCCCC2)nc1-c1cc(SC2COC2)ccc1OC(F)F)c1cnn2cccnc12` [Example 28, N-[3-[2-(difluoromethoxy)-5-(oxetan-3-ylsulfanyl)phenyl]-1-[2-oxo-2-(1-piperidyl)ethyl]pyrazol-4-yl]pyrazolo[1,5-a]pyrimidine-3-carboxamide], for which, in assay [1] (Homo sapiens, BEAS-2B, 1 h), the IC50 amounted to 24 nM. For the same molecule, the Ki in assay [2] turned out to be 0.96 nM; in assay [3], 0.41 nM.

In the case of `CC[C@H](O)Cn1cc(NC(=O)c2cnn3cccnc23)c(-c2cc(SC)ccc2OC(F)F)n1` (racemic) [Example 41, N-[3-[2-(difluoromethoxy)-5-methylsulfanyl-phenyl]-1-[rac-(2S)-2-hydroxybutyl]pyrazol-4-yl]pyrazolo[1,5-a]pyrimidine-3-carboxamide], the IC50 in assay [1] (Homo sapiens, BEAS-2B, 1 h) worked out at 13 nM. For the same molecule, the Ki came to 0.25 nM in assay [2] and 0.35 nM in assay [3].

On to `O=C(Nc1c[nH]nc1-c1cc(SC(F)F)ccc1OC(F)F)c1cnn2cccnc12` [Example 30, N-[3-[2-(difluoromethoxy)-5-(difluoromethylsulfanyl)phenyl]-1H-pyrazol-4-yl]pyrazolo[1,5-a]pyrimidine-3-carboxamide], for which the IC50 in assay [1] (Homo sapiens, BEAS-2B, 1 h) turned out to be 5 nM. Moreover, the Ki in assay [2] was 0.09 nM; in assay [3], 0.16 nM.

As for `O=C(Nc1cn(Cc2cn(C3CCN([C@H]4CCOC4)CC3)nn2)nc1-c1cc(SC2COC2)ccc1OC(F)F)c1cnn2cccnc12` (stereo in doubt) [Example 20, N-[3-[2-(difluoromethoxy)-5-(oxetan-3-ylsulfanyl)phenyl]-1-[[1-[1-[rac-(3S)-tetrahydrofuran-3-yl]-4-piperidyl]triazol-4-yl]methyl]pyrazol-4-yl]pyrazolo[1,5-a]pyrimidine-3-carboxamide; formic acid], the IC50 in assay [1] (Homo sapiens, BEAS-2B, 1 h) came out at 67 nM. In addition, the Ki in assay [2] worked out at 0.44 nM; in assay [3], 0.66 nM.
